Patent publication US11986445B2, “Nutritional composition and infant formula for promoting myelination of the brain” (SOCIÉTÉ DES PRODUITS NESTLÉ S.A., priority 2015, dated 2024)

Each molecule was assayed on brain myelination (myelin water fraction) (assay: Cross-sectional correlation of infant formula nutrient content with brain myelination (MRI myelin water fraction)). Conditions: children up to 5 years fed different infant formulas.
Assay type: in vivo, human
Description: This technique provides a quantitative measure, the Myelin Water Fraction (MWF), which is a surrogate marker of myelin content in the brain.
Infants included in this study were drawn from a larger longitudinal study of normal brain and behavioral development: the Brown University Assessment of Myelination and Behavior Across Maturation (BAMBAM). To focus on neurotypical development, children with known potential risk factors for learning, neurologic, or psychiatric disorders were specifically excluded during recruitment and enrollment. Thus, children with in utero alcohol or illicit substance exposure, premature (<37 weeks gestation) or multiple birth, fetal ultrasound abnormalities, complicated pregnancy (e.g., preeclampsia), APGAR scores <8, NICU admission, neurological disorder (e.g., head injury, epilepsy), psychiatric or developmental disorders in the infant, parents or siblings (including maternal depression requiring medication) were excluded. Ongoing screenings, such as the MCAT for autism, or CBCL for behavioral problems, were further used to remove enrolled children with clinically concerning behaviors or overt medical conditions (such as autism spectrum disorders).
A combination of retrospective and prospective data were acquired from parents via detailed medical histories and parental interview on the type of infant formula used, percentage of breastfeeding to formula feeding, and length of exclusive breastfeeding. This information was updated at each study visit, which occurred approximately every 6 months for children under 2 years, and yearly for older children. Using this information, children were categorized into one of 2 groups: #1. Exclusively formula-fed; and #2. Exclusively breastfed for at least 90 days (3 months). Children who were fed a combination of breastmilk and formula within 3 months were excluded from our analysis. Infants within the exclusively formula-fed group were further sub-divided based on parental reports of the main infant formula used throughout the first 3 months. Main formula was defined as that given 90% of the time or more (in the case were parents used an alternate brand during vacation, for example).
Using these criteria, 94 exclusively formula-fed infants and young children were selected into group #1. These included 13 children who received formula #2; 28 who received formula #5; 8 who received formula #3; 39 who received formula #4; 5 who received formula #1 and 1 who received formula #6. A sample of 52 exclusively breast-fed infants were also selected and matched to the over formula-fed group with regards to mean age, gestation duration, birth weight, male:female ratio, ethnicity ratio, maternal education, family size, and number of languages spoken in the home (in addition to English).

| Molecule | association of nutrient with myelination (myelin water fraction) over time in the brain |
| --- | --- |
| CCCCC/C=C\C/C=C\C/C=C\C/C=C\CCCC(=O)O [AA, arachidonic acid] | an association with myelination (myelin water fraction) was observed |
| [Ca+2] [calcium] | an association with myelination (myelin water fraction) was observed |
| [Mg+2] [magnesium] | an association with myelination (myelin water fraction) was observed |
| [P] [phosphorus] | an association with myelination (myelin water fraction) was observed |
| [Zn] [zinc] | an association with myelination (myelin water fraction) was observed |
| Sphingomyelin | an association with myelination (myelin water fraction) was observed |
| iron | an association with myelination (myelin water fraction) was observed |
| phosphatidylcholine | an association with myelination (myelin water fraction) was observed |
| phosphatidylinositol | an association with myelination (myelin water fraction) was observed |
| vitamin B12 | an association with myelination (myelin water fraction) was observed |

These molecules were tested on Neural Progenitor Cell (NPCs) from E14 mouse neocortex (assay: Neurosphere counts in 96-well plates). Conditions: Sphingomyelin Low dose (Dose 1: 10 nM); cells grown for 2 days.
Assay type: cell-based
Protocol: (§1) Generation of Neural Progenitor Cell (NPCs) Libraries: • dissociation of E14 mouse neocortex
(§2) E14 pup brains were harvested and placed in ice cold DPBS (1×)+10% Pen/Strep, then they were dissected using a dissecting microscope. From each pup, one brain hemisphere was placed in 2 ml of Neurobasal media/10% P/S/10× Hepes and another brain hemisphere was placed in another tube.
(§3) The tissue from each tube was aseptically and manually dissociate into single cells, neurobasal complete medium was added and centrifuged at 130 G for 5 min. The tissue was then re-suspended in neurobasal complete media with GF and placed in a corning suspension culture dish 100 mm×20 mm (#430591). Cells were passage twice using a 1:3 ratio, after what they were centrifuged (130 g 5 min), resuspended in freezing media (10% DMSO and neurobasal complete media, no GF) and frozen in liquid nitrogen (LN2).
Vials were remove from LN2, quickly defrosted, and cells were transferred, dropwise, to a 15 mL conical flask. 10 mls of complete neurobasal media was added. Cells were transferred to a suspension culture dish, and placed in an incubator for 2 hours. At 1.5 hours, cells were examined. Based on the health and number, the number of plates needed was estimated and the appropriate amount of complete neurobasal media was warmed. After 2 hours, cells were put in a 15 mL conical tube and spun at 130 G, 5 min. […]

| Molecule | number of neurospheres, Average (Mean) |
| --- | --- |
| Sphingomyelin | 94 |

What follows are molecules tested on Neural Progenitor Cell (NPCs) from E14 mouse neocortex (assay: Monolayer culture NPC proliferation assay). Conditions: Sphingomyelin low dose (Dose 1: 10 nM); 3 days culture.
Assay type: cell-based
Protocol: as §1, §2, §3
Vials were remove from LN2, quickly defrosted, and cells were transferred, dropwise, to a 15 mL conical flask. 10 mls of complete neurobasal media was added. Cells were transferred to a suspension culture dish, and placed in an incubator for 2 hours. At 1.5 hours, cells were examined. […]
EDU incorporation was measured using Click-iT® EdU Alexa Fluor® 555 Imaging Kit (Life technologies, #c10338). […]

| Molecule | neuronal proliferation, DAPI |
| --- | --- |
| Sphingomyelin | 280 |
